# Experimental data taken from PubChem BioAssay AID2060886 (Molecular Pharmacology Branch, DTP, NCI, 2025).
# System: 653999-131-R-J2-PDC complex spheroids, growth inhibition
# Assay: Anticancer human tumor 653999-131-R-J2-PDC patient-derived lung adenocarcinoma cell line growth inhibition [RAS]
# Conditions: for IC50: curve of first compound; for viability, T/C: stronger effect = lower value
# Procedure, shortened: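 Agents were tested in combination matrices in half-log decrements from a top concentration at or near clinical Cmax (10 microM if undetermined). Targets were multi-cell spheroids of tumour lines plus HUVEC and MSC stromal cells.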
# 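Note: spheroids exposed to the agents for seven days before the readout.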
smiles,measurement,setting,value
CC1(C)CCC(Nc2ncc(C(F)(F)F)c(-c3c[nH]c4c(P(C)(C)=O)c(C#N)ccc34)n2)CN1 (configuration not stated) + C=CC(=O)N1CCN(c2nc(OCC3CCCN3C)nc3c(F)c(-c4nc(N)cc(C)c4C(F)(F)F)c(Cl)cc23)C(C)C1,IC50,second compound 0.00316 µM,> 300 nM
same,IC50,second compound 0.01 µM,> 300 nM
same,IC50,second compound 0.0316 µM,> 300 nM
same,IC50,second compound 0.1 µM,> 300 nM
same,IC50,second compound 0.316 µM,> 300 nM
same,IC50,second compound 1 µM,> 300 nM
same,"viability, T/C","second compound 0.00316 µM, first compound 0.000949 µM",84%
same,"viability, T/C","second compound 0.00316 µM, first compound 0.003 µM",70.5%
same,"viability, T/C","second compound 0.00316 µM, first compound 0.00949 µM",73.5%
same,"viability, T/C","second compound 0.00316 µM, first compound 0.03 µM",60.1%
same,"viability, T/C","second compound 0.00316 µM, first compound 0.0949 µM",70%
same,"viability, T/C","second compound 0.00316 µM, first compound 0.3 µM",71.4%
same,"viability, T/C","second compound 0.01 µM, first compound 0.000949 µM",88.8%
same,"viability, T/C","second compound 0.01 µM, first compound 0.003 µM",74%
same,"viability, T/C","second compound 0.01 µM, first compound 0.00949 µM",70.1%
same,"viability, T/C","second compound 0.01 µM, first compound 0.03 µM",60.9%
same,"viability, T/C","second compound 0.01 µM, first compound 0.0949 µM",68%
same,"viability, T/C","second compound 0.01 µM, first compound 0.3 µM",64.6%
same,"viability, T/C","second compound 0.0316 µM, first compound 0.000949 µM",89.8%
same,"viability, T/C","second compound 0.0316 µM, first compound 0.003 µM",66.1%
same,"viability, T/C","second compound 0.0316 µM, first compound 0.00949 µM",59.9%
same,"viability, T/C","second compound 0.0316 µM, first compound 0.03 µM",64.2%
same,"viability, T/C","second compound 0.0316 µM, first compound 0.0949 µM",65.2%
same,"viability, T/C","second compound 0.0316 µM, first compound 0.3 µM",64.5%
same,"viability, T/C","second compound 0.1 µM, first compound 0.000949 µM",77.5%
same,"viability, T/C","second compound 0.1 µM, first compound 0.003 µM",68.7%
same,"viability, T/C","second compound 0.1 µM, first compound 0.00949 µM",61%
same,"viability, T/C","second compound 0.1 µM, first compound 0.03 µM",58.5%
same,"viability, T/C","second compound 0.1 µM, first compound 0.0949 µM",60.1%
same,"viability, T/C","second compound 0.1 µM, first compound 0.3 µM",69.8%
same,"viability, T/C","second compound 0.316 µM, first compound 0.000949 µM",101%
same,"viability, T/C","second compound 0.316 µM, first compound 0.003 µM",72.3%
same,"viability, T/C","second compound 0.316 µM, first compound 0.00949 µM",69.8%
same,"viability, T/C","second compound 0.316 µM, first compound 0.03 µM",77.1%
same,"viability, T/C","second compound 0.316 µM, first compound 0.0949 µM",77.5%
same,"viability, T/C","second compound 0.316 µM, first compound 0.3 µM",69.5%
same,"viability, T/C","second compound 1 µM, first compound 0.000949 µM",78.9%
same,"viability, T/C","second compound 1 µM, first compound 0.003 µM",69.9%
same,"viability, T/C","second compound 1 µM, first compound 0.00949 µM",74%
same,"viability, T/C","second compound 1 µM, first compound 0.03 µM",64%
same,"viability, T/C","second compound 1 µM, first compound 0.0949 µM",65.9%
same,"viability, T/C","second compound 1 µM, first compound 0.3 µM",63.7%
